Like-named read-outs stand apart in the source and are kept apart here.
Legend:
134 cancer cell lines [1] = test system: 134 cancer cell lines
AP-1060 (ETV6-NTRK3) = assay: Cell viability assay; conditions: read-out: IC50 in cell proliferation assay
134 cancer cell lines [2] = assay: Cell viability assay (ATPlite, 72 hours), IC50 on cancer cell line panel

With `CC(C)(C)c1nc(-c2cccc(NS(=O)(=O)c3c(F)cccc3F)c2F)c(-c2ccnc(N)n2)s1` [dabrafenib] the IC50 (134 cancer cell lines [1]) was 1.08 µM, the IC50 (AP-1060 (ETV6-NTRK3)) was 2.52 µM and the IC50 (134 cancer cell lines [2]; HEC-6, read-out: IC50 in cell proliferation assay, HEC-6 cell line (EGFR p.A289V)) was > 10 µM. The IC50 (134 cancer cell lines [2]; Homo sapiens, 769-P, read-out: IC50 in cell proliferation assay, cell line 769-P) was 1.05 µM, the IC50 (134 cancer cell lines [2]; Homo sapiens, 786-0, read-out: IC50 in cell proliferation assay, cell line 786-O) was 1.69 µM and the IC50 (134 cancer cell lines [2]; Homo sapiens, A 172, read-out: IC50 in cell proliferation assay, cell line A-172) was > 10 µM. For the same compound, the IC50 (134 cancer cell lines [2]; Homo sapiens, A204, read-out: IC50 in cell proliferation assay, cell line A-204) was 2 µM, the IC50 (134 cancer cell lines [2]; Homo sapiens, A498, read-out: IC50 in cell proliferation assay, cell line A-498) was 0.75 µM and the IC50 (134 cancer cell lines [2]; Homo sapiens, A549, read-out: IC50 in cell proliferation assay, cell line A-549) was 2.65 µM. For the same compound, the IC50 (134 cancer cell lines [2]; Homo sapiens, A704, read-out: IC50 in cell proliferation assay, cell line A-704) was 0.822 µM, the IC50 (134 cancer cell lines [2]; Homo sapiens, A-375, read-out: IC50 in cell proliferation assay, cell line A-375 (BRAF p.V600E)) was 0.071 µM and the IC50 (134 cancer cell lines [2]; Homo sapiens, A-427, read-out: IC50 in cell proliferation assay, cell line A-427) was 2.24 µM. For the same compound, the IC50 (134 cancer cell lines [2]; Homo sapiens, ACHN, read-out: IC50 in cell proliferation assay, cell line ACHN) was 0.598 µM, the IC50 (134 cancer cell lines [2]; Homo sapiens, AN3-CA, read-out: IC50 in cell proliferation assay, cell line AN3-CA (FGFR2 p.N549K)) was 2.62 µM and the IC50 (134 cancer cell lines [2]; Homo sapiens, ASPC1, read-out: IC50 in cell proliferation assay, cell line AsPC-1) was > 10 µM. The IC50 (134 cancer cell lines [2]; Homo sapiens, AU565, read-out: IC50 in cell proliferation assay, cell line AU565 (ERBB2 amplification)) was 0.981 µM, the IC50 (134 cancer cell lines [2]; Homo sapiens, BT-20, read-out: IC50 in cell proliferation assay, cell line BT-20) was > 10 µM and the IC50 (134 cancer cell lines [2]; Homo sapiens, BT-474, read-out: IC50 in cell proliferation assay, cell line BT-474 (ERBB2 amplification)) was > 10 µM. The IC50 (134 cancer cell lines [2]; Homo sapiens, BT-549, read-out: IC50 in cell proliferation assay, cell line BT-549) was 1.53 µM, the IC50 (134 cancer cell lines [2]; Homo sapiens, BXPC-3, read-out: IC50 in cell proliferation assay, cell line BxPC-3) was 0.681 µM and the IC50 (134 cancer cell lines [2]; Homo sapiens, C-33-A, read-out: IC50 in cell proliferation assay, cell line C-33 A) was > 10 µM. For the same compound, the IC50 (134 cancer cell lines [2]; Homo sapiens, CAL-27, read-out: IC50 in cell proliferation assay, cell line CAL-27) was > 10 µM, the IC50 (134 cancer cell lines [2]; Homo sapiens, CCF-STTG1, read-out: IC50 in cell proliferation assay, cell line CCF-STTG1) was > 10 µM and the IC50 (134 cancer cell lines [2]; Homo sapiens, CCRF-CEM, read-out: IC50 in cell proliferation assay, cell line CCRF-CEM) was 1.59 µM. It also gave an IC50 (134 cancer cell lines [2]; Homo sapiens, COLO 205, read-out: IC50 in cell proliferation assay, cell line COLO 205 (BRAF p.V600E)) of 0.017 µM, an IC50 (134 cancer cell lines [2]; Homo sapiens, COLO-829, read-out: IC50 in cell proliferation assay, cell line COLO 829 (BRAF p.V600E)) of 0.044 µM and an IC50 (134 cancer cell lines [2]; Homo sapiens, DLD-1, read-out: IC50 in cell proliferation assay, cell line DLD-1) of 1.07 µM. For the same compound, the IC50 (134 cancer cell lines [2]; Homo sapiens, DU-4475, read-out: IC50 in cell proliferation assay, cell line DU4475 (BRAF p.V600E)) was 0.055 µM, the IC50 (134 cancer cell lines [2]; Homo sapiens, Daoy, read-out: IC50 in cell proliferation assay, cell line Daoy) was 0.919 µM and the IC50 (134 cancer cell lines [2]; Homo sapiens, DoTc2-4510, read-out: IC50 in cell proliferation assay, cell line DoTc2 4510) was > 10 µM. The IC50 (134 cancer cell lines [2]; Homo sapiens, EOL1, read-out: IC50 in cell proliferation assay, cell line EoL-1 (FIP1L1-PDGFRA)) was 2.68 µM, the IC50 (134 cancer cell lines [2]; Homo sapiens, FaDu, read-out: IC50 in cell proliferation assay, cell line FaDu) was 2.63 µM and the IC50 (134 cancer cell lines [2]; Homo sapiens, G-361, read-out: IC50 in cell proliferation assay, cell line G-361 (BRAF p.V600E)) was 0.047 µM. For the same compound, the IC50 (134 cancer cell lines [2]; Homo sapiens, HCC827, read-out: IC50 in cell proliferation assay, cell line HCC827 (EGFR exon19del)) was 1.27 µM, the IC50 (134 cancer cell lines [2]; Homo sapiens, HCC4006, read-out: IC50 in cell proliferation assay, cell line HCC4006 (EGFR exon19del)) was > 10 µM and the IC50 (134 cancer cell lines [2]; Homo sapiens, HCT-15, read-out: IC50 in cell proliferation assay, cell line HCT 15) was 1.52 µM. The IC50 (134 cancer cell lines [2]; Homo sapiens, HCT-116, read-out: IC50 in cell proliferation assay, cell line HCT 116) was 1.11 µM, the IC50 (134 cancer cell lines [2]; Homo sapiens, HEC-1, read-out: IC50 in cell proliferation assay, HEC-1 cell line) was 1.26 µM and the IC50 (134 cancer cell lines [2]; Homo sapiens, HEC-1B, read-out: IC50 in cell proliferation assay, HEC-1-B cell line (EGFR p.A864V)) was > 10 µM. For the same compound, the IC50 (134 cancer cell lines [2]; Homo sapiens, HL-60, read-out: IC50 in cell proliferation assay, HL-60 cell line) was > 10 µM, the IC50 (134 cancer cell lines [2]; Homo sapiens, HT, read-out: IC50 in cell proliferation assay, HT cell line) was > 10 µM and the IC50 (134 cancer cell lines [2]; Homo sapiens, HT-1080, read-out: IC50 in cell proliferation assay, HT-1080 cell line) was 0.971 µM. For the same compound, the IC50 (134 cancer cell lines [2]; Homo sapiens, Hs746T, read-out: IC50 in cell proliferation assay, Hs 746.T cell line (MET exon14skip + amplification)) was > 10 µM, the IC50 (134 cancer cell lines [2]; Homo sapiens, Hs-578T, read-out: IC50 in cell proliferation assay, Hs 578T cell line) was 1.11 µM and the IC50 (134 cancer cell lines [2]; Homo sapiens, HuTu80, read-out: IC50 in cell proliferation assay, HuTu 80 cell line) was 2.99 µM. For the same compound, the IC50 (134 cancer cell lines [2]; Homo sapiens, J82, read-out: IC50 in cell proliferation assay, J82 cell line) was > 10 µM, the IC50 (134 cancer cell lines [2]; Homo sapiens, Jurkat E6.1, read-out: IC50 in cell proliferation assay, Jurkat E6.1 cell line) was 1.3 µM and the IC50 (134 cancer cell lines [2]; Homo sapiens, K562, read-out: IC50 in cell proliferation assay, K-562 cell line) was > 10 µM. The IC50 (134 cancer cell lines [2]; Homo sapiens, KATO III, read-out: IC50 in cell proliferation assay, KATO III cell line (FGFR2 amplification)) was 1.77 µM, the IC50 (134 cancer cell lines [2]; Homo sapiens, KG-1, read-out: IC50 in cell proliferation assay, KG-1 cell line (FGFR1OP2-FGFR1)) was 1.21 µM and the IC50 (134 cancer cell lines [2]; Homo sapiens, KLE, read-out: IC50 in cell proliferation assay, KLE cell line) was 1.56 µM. The IC50 (134 cancer cell lines [2]; Homo sapiens, KMS-11, read-out: IC50 in cell proliferation assay, KMS-11 cell line (FGFR3 p.Y373C)) was > 10 µM, the IC50 (134 cancer cell lines [2]; Homo sapiens, KU812, read-out: IC50 in cell proliferation assay, Ku812 cell line) was 8.65 µM and the IC50 (134 cancer cell lines [2]; Homo sapiens, Kasumi 1, read-out: IC50 in cell proliferation assay, Kasumi-1 cell line (KIT p.N822K)) was 9.05 µM. The IC50 (134 cancer cell lines [2]; Homo sapiens, LC-2-ad, read-out: IC50 in cell proliferation assay, LC-2/ad cell line (CCDC6-RET)) was 2.07 µM, the IC50 (134 cancer cell lines [2]; Homo sapiens, LNCaP-Clone-FGC, read-out: IC50 in cell proliferation assay, LNCaP clone FGC cell line) was 2.73 µM and the IC50 (134 cancer cell lines [2]; Homo sapiens, LS174T, read-out: IC50 in cell proliferation assay, LS174T cell line) was > 10 µM. The IC50 (134 cancer cell lines [2]; Homo sapiens, LS-411N, read-out: IC50 in cell proliferation assay, LS411N cell line (BRAF p.V600E)) was 0.022 µM, the IC50 (134 cancer cell lines [2]; Homo sapiens, LoVo, read-out: IC50 in cell proliferation assay, LoVo cell line) was 4.36 µM and the IC50 (134 cancer cell lines [2]; Homo sapiens, MCF7, read-out: IC50 in cell proliferation assay, MCF-7 cell line) was > 10 µM. For the same compound, the IC50 (134 cancer cell lines [2]; Homo sapiens, MDA-MB-231, read-out: IC50 in cell proliferation assay, MDA-MB-231 cell line) was > 10 µM, the IC50 (134 cancer cell lines [2]; Homo sapiens, MDA-MB-453, read-out: IC50 in cell proliferation assay, MDA-MB-453 cell line) was > 10 µM and the IC50 (134 cancer cell lines [2]; Homo sapiens, MDA-MB-468, read-out: IC50 in cell proliferation assay, MDA-MB-468 cell line) was > 10 µM. The IC50 (134 cancer cell lines [2]; Homo sapiens, MG-63, read-out: IC50 in cell proliferation assay, MG-63 cell line) was > 10 µM, the IC50 (134 cancer cell lines [2]; Homo sapiens, MIA PaCa-2, read-out: IC50 in cell proliferation assay, MIA PaCa-2 cell line) was > 10 µM and the IC50 (134 cancer cell lines [2]; Homo sapiens, MKN-45, read-out: IC50 in cell proliferation assay, MKN45 cell line (MET amplification)) was > 10 µM. For the same compound, the IC50 (134 cancer cell lines [2]; Homo sapiens, MOLM-13, read-out: IC50 in cell proliferation assay, MOLM-13 cell line (FLT3 ITD)) was 5.7 µM.

— PMC9516332 (Frontiers in Oncology, 2022)
